Measurements reported in US9573972B2, “Nurotoxic sterol glycosides” (priority 2008, dated 2017).
Marks after values point to notes of the source that are not given here.

What was measured:
Assay type in all cases: in vivo, mouse
Heat shock protein-70 = assay: Anti-Hsp-70 immunofluorescence; conditions: for Anti-Hsp-70 (VHLsc), change: ventral horn lumbar spinal cord; for Anti-Hsp-70 (VHLsc), change / Anti-Hsp-70 (VHTsc): SG-fed vs control; for Anti-Hsp-70 (VHTsc): ventral horn thoracic spinal cord
Method: Tissue-mounted slides were processed for fluorescence microscopy as follows: Sections were rinsed in coplin jars for 45 minutes at room temperature (RT) in three changes of PBS. Sections were then incubated at RT for 30 minutes in a blocking permeabilization solution made of 5% normal goat serum (NGS), 5% normal rabbit serum (NRS) or 5% BlokHen II (Ayes Labs, Inc., Tigard, Oreg.), 0.05% Triton X-100 and PBS. Subsequently, the blocking solution was tipped off and the slides were rinsed in PBS for 2 minutes. Sections were then incubated overnight in a humidified chamber at 4° C. with a PBS buffered solution that contained 1% NGS or 1% NRS, 1% bovine serum albumin (BSA) and one of the following primary antibodies: (a) rabbit anti-human/mouse ATF-3 (H-90) IgG (polyclonal, 1:500; Santa Cruz Biotechnology, Inc., Santa Cruz, Calif.), (b) anti-activated caspase-3 IgG (monoclonal, 1:250; Chemicon International, Temecula, Calif.) (see FIG. 9), (c) goat antihuman/mouse choline acetyl transferase (ChAT) IgG (polyclonal, 1:100; Chemicon International, Temecula, Calif.) (see FIG. 6), (d) rabbit anti-mouse glial fibrillary acidic protein IgG (polyclonal, 1:250; GeneTex Inc., San Antonio, Tex.) (see FIG. 7), (e) rabbit antihuman/mouse ionized calcium binding adaptor molecule 1 (IBA-1) IgG (polyclonal, 1:500; Wako Pure Chemical Industries, Ltd, Richmond, Va.), (f) mouse anti-human/mouse clone AT8 PHF-1 Tau (monoclonal, 1:200; Pierce Biotechnology Inc., Rockford, Ill.), (g) rabbit anti-human/mouse TAR DNA-binding protein 43 (TDP43) (1:100; ProteinTech Group Inc., Chicago, Ill.) (See FIG. 14), (h) chicken anti-human/mouse β-tubulin 3 (TuJ1 antigen) (polyclonal, 1:100, Ayes Labs, Inc., Tigard, Oreg.), (i) rabbit anti-mouse tyrosine hydroxylase (polyclonal, 1:500, Chemicon International, Temecula, Calif. or polyclonal 1:1000, Affinity BioReagents, Golden, Colo.) (FIG. 10), (j) rabbit anti human/mouse anti-pJunscr73 IgG (polyclonal, 1:200; Chemicon International, Temecula, Calif.), (k) rabbit anti human/mouse anti-HSP-70 IgG (polyclonal, 1:200; Chemicon International, Temecula, Calif.), or (1) rabbit anti human/mouse anti-HSP-25 IgG (polyclonal, 1:100; Chemicon International, Temecula, Calif.). In each experiment, additional slides were incubated with the primary antibody and the secondary antibody omitted or with secondary antibody and primary antibody omitted to test for nonspecific staining. Where appropriate, positive control slides (Alzheimer's disease patient entorhinal cortex, obtained from Drs. Claudia Schwab and Patrick McGeer of the Kinsmen Laboratory, University of British Columbia, Vancouver, BC, Canada) were also processed as above for comparison. Following overnight incubation with the primary antibody, slides were rinsed for 45 minutes at RT in three changes of PBS. Immediately after, the slides were incubated in black chambers that excluded light for 1 hour at RT with the secondary antibody solutions containing 5% NGS or 5% NRS and fluorophore conjugated antibodies: AlexaFluor 568 goat anti-rabbit or rabbit anti-goat IgG (monoclonal, 1:250, absorption: 578 nm, emission 603 nm; Molecular Probes, Eugene, Oreg.), AlexaFluor 546 goat antirabbit or rabbit anti-goat IgG (monoclonal; 1:250, absorption 556 nm, emission 573 nm; Molecular Probes, Eugene, Oreg.) or fluorescein isothiocyanate (FITC) goat anti-rabbit IgG (polyclonal, 1:500, absorption: 494 nm, emission: 518 nm; Sigma, Saint Louis, Mo.). The secondary antibody solution was tipped off and slides were rinsed for 15 minutes in three changes of PBS. Tissue sections were cover-slipped with a 4′6 diamidino-2-phenylindole (DAPI) fluorescent mounting media (Vectashield, absorption: 360 nm, emission: 460 nm, Vector Laboratories, Burlington, ON, Canada) in order to label the nuclei and stored at 4° C. in dark slide boxes to retard bleaching of the fluorescent labels. […]

[1] = tested on: Activating transcription factor-3; assay: Anti-ATF-3 immunofluorescence; conditions: for Anti-ATF-3, change: SG-fed vs control
Method: (§1) Tissue-mounted slides were processed for fluorescence microscopy as follows: Sections were rinsed in coplin jars for 45 minutes at room temperature (RT) in three changes of PBS. Sections were then incubated at RT for 30 minutes in a blocking permeabilization solution made of 5% normal goat serum (NGS), 5% normal rabbit serum (NRS) or 5% BlokHen II (Ayes Labs, Inc., Tigard, Oreg.), 0.05% Triton X-100 and PBS. Subsequently, the blocking solution was tipped off and the slides were rinsed in PBS for 2 minutes. […]

Phosphorylated Junser73 = assay: Anti-pJun immunofluorescence
Method: as §1

[2] = SG-fed group over time (35 to 52 wk)

## CC[C@H](/C=C/[C@@H](C)[C@H]1CC[C@H]2[C@@H]3CC=C4C[C@@H](O[C@@H]5O[C@H](CO)[C@@H](O)[C@H](O)[C@H]5O)CC[C@]4(C)[C@H]3CC[C@]12C)C(C)C [SG, Stigmasterol β-D-Glucopyranoside]
Heat shock protein-70; [2]
  Anti-Hsp-70 Lsc over time: Anti-Hsp-70 Lsc (SG-fed group over time) (ns, p = 0.1223)
  Anti-Hsp-70 Tsc over time: Anti-Hsp-70 Tsc (SG-fed group over time) (ns, p = 0.8319)
Heat shock protein-70; Time-point 1 (35 wk)
  Anti-Hsp-70 (VHLsc), change: Anti-Hsp-70: +1036%***
  Anti-Hsp-70 (VHTsc): Anti-Hsp-70: (ns, p = 0.9697)
Heat shock protein-70; Time-point 2 (52 wk)
  Anti-Hsp-70 (VHLsc), change: Anti-Hsp-70: +425%*
  Anti-Hsp-70 (VHTsc): Anti-Hsp-70: (ns, p = 0.2793)
[1]; [2]
  Anti-ATF-3 immunoreactive cells over time, change: Anti-ATF-3 immunoreactive cells (SG-fed group over time): −48%***
[1]; Time-point 1 (35 wk)
  Anti-ATF-3, change: Anti-ATF-3: +242% ***
[1]; Time-point 2 (52 wk)
  Anti-ATF-3, change: Anti-ATF-3: +101%**
Phosphorylated Junser73; [2]
  Anti-pJun immunoreactive cells over time: Anti-pJun immunoreactive cells (SG-fed group over time) (ns)
Phosphorylated Junser73; SG-fed vs control, Time-point 1 (35 wk)
  Anti-pJun, change: Anti-pJun: +199%*
Phosphorylated Junser73; SG-fed vs control, Time-point 2 (52 wk)
  Anti-pJun: Anti-pJun (ns)
